Patent US20070167408A1, “NOVEL ALKYL PHOSPHOLIPID DERIVATIVES WITH REDUCED CYTOTOXICITY AND USES THEREOF” (ZENTARIS GmbH, priority 2005, published 2007)
Converted amounts (≈) assume the structure as drawn.

Experiments:
[1] = test system: Trypanosoma cruzi (Tulahuan-LACZ amstigotes in PEM); experiment: In vitro drug activity assay, protozoon A; format: cell-based; details: amastigotes in murine peritoneal macrophages, 3 days
Description: (§1) In vitro activity of selected compounds of the invention against different protozoa was assessed as follows.
Murine (CD1) peritoneal macrophages were harvested 24 hours after starch induction and dispensed into 96-well plates at a concentration of 4×10^5 mL. After 24 hours, the cells were infected with Trypanosoma cruzi Tulahuan LAC-Z amastigotes (grown and cultured according to Buckner et al., Infection and Immunity 1999, 67(1): 403-409). 24 hours later, the infected cells were exposed to the test compounds (compounds of the invention as well as known prior art compounds) for 3 days and 50 μL of 500 μM CPRG-1% Nonidet P-40 was added to each well. The plates were read after 2 to 5 hours at 570 nm (Buckner et al., Antimicrobial Agents and Chemotherapy 1996, 40(11): 2592-2597). ED50 values were calculated with Msxlfit (IDBS).
(§2) The following protozoa were assessed: • A) Trypanosoma cruzi (Tulahuan-LACZ amstigotes in PEM, Lorente S O et al., Antimicrobial agents and chemotherapy 2004, 48(8): 2937-2950; Buckner et al., Infection and Immunity 1999, 67(1): 403-409; Buckner et al., Antimicrobial Agents and Chemotherapy 1996, 40(11): 2592-2597) • B) Trypanosoma brucei rhodesiense (strain STIB900, Lorente S O et al., Antimicrobial agents and chemotherapy 2004, 48(8): 2937-2950; Habtemariam S, BMC Pharmacology 2003, 3:6) • C) Plasmodium falciparum (strain K1, Korsinczky M et al., Antimicrobial agents and chemotherapy 2000, 44(8): 2100-2108; Thaitong S and Beale G H, Trans. R. Soc. Trop. Med. Hyg. 1981, 75: 271-273; Trager W and Jensen J B, Science 1976, 193: 673-675) • D) Plasmodium faiciparum (strain 3D7, Mu et al., PLoS Biology 2005, 3(10): e335)

[2] = test system: epimastigotes of Trypanosoma cruzi strain Y; experiment: In vitro activity of miltefosine and benznidazole against epimastigotes; format: cell-based; details: 72 h
Description: In vitro activity of Miltefosine and Benznidazole in the course of a combination treatment against Trypanosoma cruzi strain Y was assessed compared to the respective single treatments with miltefosine or benznidazole alone.
Miltefosine and Benznidazol were tested in vitro in combination against epimastigote forms of Trypanosoma cruzi strain Y which were isolated from a chagasic patient in Sao Paulo, Brazil and obtained from Dr. Victor Nussenzweig (Silva, L H. and Nussenzweig, V.; Folia clin. biol., 20: 191-207, 1953). This T. cruzi Y strain can also be ordered at ATCC 50832, while the ATCC strain must be re-adapted by several passages through mice in order to regain the strain's original characteristics of differentiation and virulence.
Epimastigotes were axenially cultured in brain heart infusion medium (BHI, Becton, Dickinson, Cat. No. 221812) supplemented with 10 mg of hemin per liter and 5% heat inactivated fetal calf serum (FCS) at 28° C. with shaking (˜80 rpm) up to a maximum of 10-12 passages, before the cultures were aged to obtain metacyclics that were purified on a DE-52 column (Whatman DEAE cellulose ion exchange column, Waco, Cat. No. 17050-03 or 17050-04) and injected into mice. After 2-4 weeks parasites were recovered from blood and placed back into axenic culture.
Stock solutions of Miltefosine and Benznidazol in concentrations of 10 mg/ml and 20 mg/ml dissolved in methanol were used. Stock solutions were serially diluted with a factor of 2 in BHI-FCS medium. For Benznidazol the following testing concentrations were used: 80 μg/ml, 40 μg/ml, 20 μg/ml, 10 μg/ml, 5 μg/ml and 2.5 μg/ml. The testing concentrations for Miltefosine were 20 μg/ml, 10 μg/ml, 5 μg/ml, 2.5 μg/ml, 1.25 μg/ml and 0.625 μg/ml.
2×10^6 epimastigotes were incubated in BHI-FCS medium with Miltefosine and Benznidazol in a final volume of 200 μl. After 72 h incubation at 28° C., parasite growth was determined by direct counting the number of parasites with a Neubauer chamber. The 50% inhibitory concentrations were determined by linear regression analysis.

[3] = test system: Cryptococcus neoformans ATCC 90112; experiment: Anti-fungal broth microdilution (MIC), fungus H; format: cell-based; details: yeast protocol, more than 80% inhibition, 48 h
Description: (§3) Anti-fungal activity of selected compounds of the invention was assessed by means of anti-fungal susceptibility tests as follows.
(§4) The antifungal activities of the compounds of the invention against different fungi were measured according to standard broth microdilution methods of the US National Committee for Clinical Laboratory standards (NCCLS) for yeasts (NCCLS document M27-A, 1997) and filamentous fungi (NCCLS document M38-A, 2002).
(§5) Stock solutions of compounds of the invention were freshly prepared on the days of experiments equal to 1.28 mg/10 ml media. Serial dilutions were performed to achieve the following testing concentrations: 64 μg/ml, 32 μg/ml, 16 μg/ml, 8 μg/ml, 4 μg/ml, 2 μg/ml, 1 μg/ml, 0.5 μg/ml, 0.25 μg/ml and 0.125 μg/ml.
(§6) An inoculum of 10^6 CFU/ml of the fungi strain was prepared in the appropriate medium and transferred to test tubes for incubation.
(§7) The method is used to determine the minimum inhibitory concentrations (MIC) of drugs on fungi strains. […] For the filamentous fungi protocol, MIC determination took place after 48 to 72 h of culture at 35° C. and was defined at that concentration which produced more than 50% visible growth inhibition.

[4] = test system: Plasmodium faiciparum (strain 3D7); experiment: In vitro drug activity assay, protozoon D; format: cell-based, Plasmodium falciparum; details: strain 3D7, 3[H]-hypoxanthine method
Description: as §1
(§8) Plasmodium falciparum strain K1 and strain 3D7 parasites were cultured according to Trager W and Jensen J B (Science 1976, 193: 673-675). In vitro drug susceptibility assays with the test compounds were carried out according to Korsinczky M et al. (Antimicrobial agents and chemotherapy 2000, 44(8): 2100-2108) and Fivelman Q L et al. (Antimicrobial agents and chemotherapy 2004, 48(11): 4097-4102) using a ^3[H]-hypoxanthine radioisotope method. ED50 values were calculated with Msxlfit (IDBS).
as §2

[5] = test system: Trypanosoma brucei rhodesiense (strain STIB900); experiment: In vitro drug activity assay, protozoon B; format: cell-based; details: bloodstream form trypomastigotes, 72 hours, Alamar Blue
Description: as §1
Trypanosoma brucei rhodesiense STIB900 bloodstream form trypomastigotes were maintained in HMI-18 medium (Hirumi H, Hirumi K, J Parasitol. 1989, 75(6):985-989) with 15% heat-inactivated fetal calf serum at 37° C., 5% CO2, humidified atmosphere. Trypomastigotes were washed and resuspended in fresh medium at a concentration of 2×10^5 mL. Test compounds were given to the trypomastigotes and plates were incubated for 72 hours at 37° C., 5% CO2, humidified atmosphere. At 72 hours the plates were assessed microscopically before Alamar Blue was added (Raz et al., Acta Trop. 1997, 68: 139-147). Plates were read after 5 to 6 hours at EX/EM 530/585 nm with a filter cutoff at 550 nm. ED50 values were calculated with Msxlfit (IDBS).
as §2

[6] = test system: Cryptococcus neoformans H99; experiment: Anti-fungal broth microdilution (MIC), fungus I; format: cell-based; details: yeast protocol, more than 80% inhibition, 48 h
Description: as §3, §4, §5, §6, §7

[7] = test system: Plasmodium falciparum (strain K1); experiment: In vitro drug activity assay, protozoon C; format: cell-based; details: strain K1, 3[H]-hypoxanthine method
Description: as §1, §8, §2

[8] = test system: Aspergillus fumigatus 040-200167; experiment: Anti-fungal broth microdilution (MIC), fungus C; format: cell-based; details: filamentous protocol, more than 50% growth inhibition, 48 to 72 h
Description: as §3, §4, §5, §6, §7

[9] = test system: Aspergillus fumigatus ATCC 204305; experiment: Anti-fungal broth microdilution (MIC), fungus A; format: cell-based; details: filamentous protocol, more than 50% growth inhibition, 48 to 72 h
Description: as §3, §4, §5, §6, §7

[10] = test system: Cryptococcus gattii ATCC 32608; experiment: Anti-fungal broth microdilution (MIC), fungus J; format: cell-based; details: yeast protocol, more than 80% inhibition, 48 h
Description: as §3, §4, §5, §6, §7

[11] = test system: Candida albicans ATCC 10231; experiment: Anti-fungal broth microdilution (MIC), fungus D; format: cell-based; details: yeast protocol, more than 80% inhibition, 48 h
Description: as §3, §4, §5, §6, §7

[12] = test system: Aspergillus fumigatus 322-384; experiment: Anti-fungal broth microdilution (MIC), fungus B; format: cell-based; details: filamentous protocol, more than 50% growth inhibition, 48 to 72 h
Description: as §3, §4, §5, §6, §7

[13] = test system: Candida albicans ATCC 90028; experiment: Anti-fungal broth microdilution (MIC), fungus E; format: cell-based; details: yeast protocol, more than 80% inhibition, 48 h
Description: as §3, §4, §5, §6, §7

[14] = test system: Candida parapsilosis ATCC 22019; experiment: Anti-fungal broth microdilution (MIC), fungus G; format: cell-based; details: yeast protocol, more than 80% inhibition, 48 h
Description: as §3, §4, §5, §6, §7

[15] = test system: Candida albicans TS3; experiment: Anti-fungal broth microdilution (MIC), fungus F; format: cell-based; details: yeast protocol, more than 80% inhibition, 48 h
Description: as §3, §4, §5, §6, §7

Compound	ED50 (μg/mL), protozoon A [1] [µg/mL]	Epimastigotes [amount/mL] ([2]; benznidazole 5 ug/mL)	Epimastigotes [amount/mL] ([2]; benznidazole 10 ug/mL)	Epimastigotes [amount/mL] ([2]; benznidazole 40 ug/mL)	MIC, fungus H [3] [µg/mL]	ED50 (μg/mL), protozoon D [4] [µg/mL]	ED50 (μg/mL), protozoon B [5] [µg/mL]	MIC, fungus I [6] [µg/mL]	ED50 (μg/mL), protozoon C [7] [µg/mL]	MIC, fungus C [8] [µg/mL]	MIC, fungus A [9] [µg/mL]	MIC, fungus J [10] [µg/mL]	MIC, fungus D [11] [µg/mL]	MIC, fungus B [12] [µg/mL]	MIC, fungus E [13] [µg/mL]	MIC, fungus G [14] [µg/mL]	MIC, fungus F [15] [µg/mL]
O=C(Cn1ccnc1[N+](=O)[O-])NCc1ccccc1 [benznidazole, N-Benzyl-2-nitroimidazol-1-yl-acetamide]	0.22 (≈ 0.845 µM)	455.833	358.333	190.000													
CCCCCCCCCCCCCCCCOP(=O)([O-])OC1CC[N+](C)(Cc2ccccc2)CC1 (stereo not drawn) [Compound 1, Phosphoric acid 1-benzyl-1-methyl-piperidin-4-yl ester hexadecyl ester]	1.71 (≈ 3.35 µM)				1.5 (≈ 2.94 µM)	9.97 (≈ 19.6 µM)	18.80 (≈ 36.9 µM)	2 (≈ 3.92 µM)	6.93 (≈ 13.6 µM)	4 (≈ 7.85 µM)	2 (≈ 3.92 µM)	1 (≈ 1.96 µM)	2 (≈ 3.92 µM)	2 (≈ 3.92 µM)	1 (≈ 1.96 µM)	3 (≈ 5.89 µM)	1.5 (≈ 2.94 µM)
